Results: patent publication US5322841A, “Method for producing neutral glucans for pharmaceutical applications” (Alpha-Beta Technology, Inc., priority 1992, dated 1994)

Key:
[1] = system: β-glucan receptor of monocytes; test: Inhibition of Zymosan ingestion by human monocytes (affinity for the monocyte β-glucan receptor); assay type: cell-based
Protocol: Human monocytes were incubated with various concentrations of the PGG for 15 minutes, washed to remove unbound glucan and then incubated with Zymosan for 30 minutes. After fixing and staining the monolayers, the percentage of monocytes ingesting Zymosan was determined. The affinity of glucan preparations for the β-glucan receptor by was measured according to their ability to competitively occupy the receptor thus inhibiting the uptake of Zymosan by monocytes. Samples were compared by taking the concentration of glucan required to obtain 50% inhibition of Zymosan ingestion.
Two molecular weight fractions of PGG from Saccharomyces cerevisiae R4 were prepared according to the procedure outlined in Example 2. The PGG preparations were then assayed for their affinity to the monocyte β-glucan receptor by measuring inhibition of Zymosan phagocytosis as described in Example 3.

[2] = target: β-glucan receptor of monocytes; conditions: Table 1; value from Czop and Austen, J. Immunology 135(5):3388-3393 (1985); cited from earlier work
[3] = system: E. coli strain TVDL-rat; test: E. coli sepsis model in mice; assay type: in vivo
Protocol: A sepsis model was developed in mice to characterize the efficacy of modified PGG glucans in protecting an immunologically intact host against serious infections, such as those which commonly occur following abdominal surgery. PGG derived from WGP-R4 was prepared according to the procedure outlined in Example 2.
The model used intraperitoneal challenge of mice with an 0.1 ml suspension of E. coli strain TVDL-rat (approximately 10^8 CFU/ml) 24 hours following IV administration of PGG by single bolus injection using transthoracic cardiac puncture. Mice were returned to their cages and maintained on food and water ad libitum. A control group of 10 mice were injected with 0.1 ml sterile saline at the time of the PGG administration. Mortality rates for the treatment groups and saline control group were recorded at 48 hours after challenge.

[4] = system: peripheral white blood cell (WBC) counts; test: Peripheral total and differential white blood cell counts in mice after IV or SC PGG; assay type: in vivo, male CD-1 mice
Protocol: The effect of in vivo administration of modified glucans on peripheral white blood cell (WBC) counts was characterized in mice. PGG preparations of the modified glucan from strain R4 were prepared according to the procedure outlined in Example 2 and administered intravenously (IV) and subcutaneously (SC) to male CD-1 mice. Total and differential cell counts were monitored at regular time intervals.

[5] = most pronounced increase, FIGS. 2 and 3, mice
[6] = multiple-dose SC regimen, 5 mg/mouse/day×4 days, after initiation of therapy

Substance | Relative Avidity ([1]; Table 1, relative to Barley β-Glucan = 1) | Concentration for 50% Inhibition [2] [µg/mL] | lowest dose significantly reducing mortality ([3]; single IV bolus 24 hours before E. coli challenge, equals 0.5 mg/kg body weight) [mg/mouse] | mortality at 48 hours after challenge compared to saline control group ([3]; single IV bolus 24 hours before intraperitoneal E. coli challenge, p<0.05, doses as low as 0.01 mg/mouse (0.5 mg/kg body weight)) | time to amplification of total WBC counts ([4]; FIGS. 2 and 3, mice) [h] | increase in granulocyte count [4, 5] [×] | increase in monocyte count [4, 5] [×] | increase in average monocyte count, zero hours to 144 hours ([4]; multiple-dose SC regimen) [fold] | time at which increase in total WBC begins [4, 6] [h] | time at which increase in total WBC peaks [4, 6] [h] | average monocyte count ([4]; multiple-dose SC regimen, at 144 hours (320/mm^3 at zero hours)) | total WBC count ([4]; single-dose IV administration, 5 mg/mouse) | concentration of glucan required to obtain 50% inhibition of Zymosan ingestion ([1]; human monocytes incubated with glucan 15 minutes, then Zymosan 30 minutes, FIG. 1) [µg/mL] | increase in activity (affinity for monocyte β-glucan receptor) versus YE glucan ([1]; ratio of concentrations for 50% inhibition of Zymosan ingestion) [fold]
Barley β-Glucan [reference compound] | 1 | 65 | – | – | – | – | – | – | – | – | – | – | – | –
poly-(1-6)-β-D-glucopyranosyl-(1-3)-β-D-glucopyranose [PGG] | – | – | 0.01 | significantly reduced mortality | < 6 | 6 | 12 | 24 | 48 | 144 | approximately 8,000 /mm^3 | profound increase | 0.1 | 35
